Results taken from publication PMC11481279 (Europace, 2024).

These compounds were tested against SARS-CoV-2 ORF 3a protein (Severe acute respiratory syndrome coronavirus 2, UniProt P0DTC3) (assay: cell-based). Settings: read-out: % inhibition at 100 μM.
SARS-CoV-2 ORF 3a protein, sequence (P0DTC3 whole entry, looked up): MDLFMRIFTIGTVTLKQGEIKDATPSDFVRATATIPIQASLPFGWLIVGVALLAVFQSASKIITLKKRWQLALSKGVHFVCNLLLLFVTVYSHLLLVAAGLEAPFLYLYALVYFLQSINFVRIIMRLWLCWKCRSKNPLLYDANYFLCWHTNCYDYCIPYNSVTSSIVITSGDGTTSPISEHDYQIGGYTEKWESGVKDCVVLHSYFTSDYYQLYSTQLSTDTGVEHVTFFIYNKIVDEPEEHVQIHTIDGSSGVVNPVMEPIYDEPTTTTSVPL
`CC(C)NC[C@@H](O)c1ccc(NS(C)(=O)=O)cc1` [D-Sotalol] showed an inhibition at 100 µM of 20.6 ± 4.5%. Work on `CN(CCOc1ccc(NS(C)(=O)=O)cc1)CCc1ccc(NS(C)(=O)=O)cc1` [Dofetilide] yielded an inhibition at 100 µM of 65.1 ± 6.7%. In the case of `CCCCc1oc2ccc(NS(C)(=O)=O)cc2c1C(=O)c1ccc(OCCCN(CCCC)CCCC)cc1` [Dronedarone], the inhibition at 100 µM is reported as 45.4 ± 4.7%. `CCCCCCCN(CC)CCCC(O)c1ccc(NS(C)(=O)=O)cc1` (stereo not shown) [Ibutilide] gave an inhibition at 100 µM of 36.4 ± 6.6%.
